Tests used:
HEK cells = assay: Cell viability assay, LDH release; format: cell-based, human; conditions: 24 hours treatment, at the higher concentrations tested
Experimental: The toxicity of the compounds towards human cells was tested using HEK cell lines (FIG. 5), which were cultured in DMEM medium and 10% Fetal Bovine Serum at 37° C. in 5% CO2. 5×10^4 cells were seeded into 96-well plates 24 hours before treatment. Incremental concentrations of ionic liquids (diluted 2×) were added into the wells for another 24 hours. The release of the cytosolic enzyme lactate dehydrogenase (LDH) was then measured, following the manual of Pierce LDH Cytotoxicity Assay Kit (Thermofisher, Mass., USA). Untreated cells (live cells) and cells treated with lysis buffer for 2 hours (dead cells) were used as the reference for normalization. All experiments were performed in triplicate. […] Experiments were repeated using an MTX assay with the trend in the results matching those of the LDH assay.

[1] = system: Pseudomonas aeruginosa (PA14); assay: Antimicrobial sensitivity, colony forming units (CFU) of PA14; format: cell-based; conditions: PA14, compared with control samples (FIG. 2)
Excerpt: Antimicrobial sensitivity experiments used Pseudomonas aeruginosa (PA14, FIG. 2) a gram-negative monoflagellated bacterium. This is a model bacterium for such studies as it is […] and is an opportunistic human pathogen, colonizing immunocompromised patients, such as those with cystic fibrosis, cancer, or AIDS [15].

PA14 = assay: Turbidity of PA14 solutions as indication of bacterial growth; format: cell-based, Pseudomonas aeruginosa; conditions: PA14 solution with 10 uL IL (FIG. 3)

Substance	reduced cell viability (HEK cells)	drop in the colony-forming unit (CFU) [1]	turbidity / bacteria growth (PA14)
N-butyl(ethylenediaminium) bis(trifluoroethanesulfonyl)amide [[HButylen][Tf2N]]	~50%		
N-hexylethylenediaminium bis(trifluoroethanesulfonyl)amide [[HHex][Tf2N]]	~50%	~3 orders of magnitude	no turbidity
